Measurements published in US20240298601A1, “SESAME PLANTS RESISTANT TO ACETOLACTATE SYNTHASE-INHIBITING HERBICIDES, COMPOSITIONS AND METHODS FOR PRODUCING SAME” (Yissum Research Development Company of The Hebrew …, priority 2021, published 2024).

What was measured:
WT plants [1] = assay: Field observation after Imazapic recommended dose, WT; format: in vivo, Sesamum indicum; conditions: Imazapic 48 g a.i. h^−1
[2] = test system: wild type (S-416) sesame plants; assay: Herbicides dose-response assay (post-emergence, pots), wild type; format: in vivo, Sesamum indicum; conditions: for ED50 WT: herbicide rate reducing plant growth (shoot DW) by 50%, 16 DAT, sprayed at two true leaves, n=5; for reduction in shoot DW, WT / reduction in shoot length, WT: under the recommended dose; for response of WT plants in dose-response assay: increasing doses
SiRM plants [3] = assay: Roots development under increasing dosages of Imazapic; format: in vivo, Sesamum indicum; conditions: pre-emergence; 24, 48, 96 and 192 g a.i. ha^−1; sandy soil; 14 DAT
SiRM plants [4] = assay: Field observation after Imazapic recommended dose, SiRM; format: in vivo, Sesamum indicum; conditions: Imazapic 48 g a.i. h^−1
WT plants [5] = assay: Imazapic pre-emergence pot experiment, WT; format: in vivo, Sesamum indicum
Amaranthus palmeri [6] = assay: 2021 field trial, Imazapic pre-emergence, weed control; format: in vivo; conditions: pre-emergence Imazapic 48 g a.i. ha^−1; field 2021
Method: (§1) An additional field experiment was conducted during the summer of 2021 at the Experimental Farm of the Hebrew University of Jerusalem, Rehovot, Israel. A split-plot random block design with six replicates was applied. Treatments included: weed-free plots (i.e., manual weeding), untreated control (i.e., herbicide-free treatment) and application of Imazapic (48 g a.i. ha^−1) pre-germination. The plot size was 3.6 m×0.8 m (10 cm between plants) with two rows per plot. To evaluate the efficacy of weed control, two weeds were sown on the sesame sowing lines (Amaranthus Palmeri, 500 seeds per plot, and Abutilon Theophrastus, 70 seeds per plot). Phenological characterization was conducted during the growing season for the flowering date, the number of brunches per plant and the height to the first capsule. At the end of the growing season, the number of weeds per plot was counted and weeds were harvested for dry weight measurements. Sesame plants were harvested 1 m from the middle of the plot, samples were threshed using a laboratory thresher (Wintersteiger AG LD 350, Austria), and after sifting, the seeds were weighed to obtain seed yield.

Abutilon Theophrastus = assay: as above; format: in vivo; conditions: pre-emergence Imazapic 48 g a.i. ha^−1; field 2021
Method: as §1

[7] = test system: resistant plants of the invention (SiRM); assay: 2021 field trial, Imazapic pre-emergence, sesame performance; format: in vivo, Sesamum indicum; conditions: pre-emergence Imazapic 48 g a.i. ha^−1
Method: as §1

[8] = test system: SiRM plants (mutant SiALS Ala188Val); conditions: for ED50 SiRM: herbicide rate reducing plant growth (shoot DW) by 50%, 16 DAT, n=5, calculated from fitted curve, for Imazamox above the tested rates; for dose up to which SiRM plants were not affected: post-emergence dose-response; for RI (resistance index): resistance/susceptible ratio of the ED50 (SiRM vs WT); for reduction in shoot DW, SiRM / reduction in shoot length, SiRM: under the recommended dose; for response of SiRM plants in dose-response assay: increasing doses
SiRM plants [9] = conditions: pre-emergence
SiRM plants [10] = assay: Imazamox post-emergence field experiment, SiRM sesame; format: in vivo, Sesamum indicum
WT plants (S-416) = assay: Imazamox spraying for resistance validation, WT; format: in vivo, Sesamum indicum; conditions: Imazamox 48 g a.i. ha^−1; seven days after spraying
SiRM plants [11] = assay: Physiological characterization under Imazamox, SiRM parental line; format: in vivo, Sesamum indicum; conditions: Imazamox 48 g a.i. h^−1
Method: (§2) A cross between SiRM (♂) and the WT (♀) was made to produce F1 seeds. […] The pots were placed in a growth chamber under long-day conditions (16/8 light/dark and 32/25° C.). […] Plants were characterized daily for canopy coverage (Canopeo software, Oklahoma State University, USA; Patrignani and Ochsner, 2015. Agronomy Journal, 107:2312-2320) and gas exchange (IRGA 6800; Li-Cor, Lincoln, Nebraska, USA), over the next 11 days. At the end of the experiment, 21 DAT, the aboveground material was harvested, oven-dried (80° C., 48 h), and weighed to obtain shoot DW.

WT (S-416) plants = assay: Physiological characterization under Imazamox, WT parental line; format: in vivo, Sesamum indicum; conditions: Imazamox 48 g a.i. h^−1
Method: as §2

mutant plants (SiRM) = assay: Imazamox spraying for resistance validation, M3 mutant plants; conditions: Imazamox 48 g a.i. ha^−1; seven days after spraying
Description: Genomic DNA was extracted using the CTAB protocol, with modification for sesame as described before (Teboul et al., 2020. Genes, 11, 1221). To test possible mutation(s) in the SiALS gene, a targeted sequencing was applied using four primer pairs covering the whole gene sequence (Table 1) according to the sequenced sesame genome (Zhongzhi No. 13; Wang et al., 2014. Genome Biology, 15:1-13). The gene was amplified, and PCR products were sequenced (HUJI genome center, Israel). Sequence alignment was performed using the Clustal Omega tool (Madeira et al., 2019. Nucleic Acids Research, 47:636-641).

WT (S-416) sesame = assay: Imazamox post-emergence field experiment, WT sesame; format: in vivo, Sesamum indicum; conditions: Imazamox 40 g a.i. h^−1
[12] = test system: hybrid (F1) plants (SiRM x WT); assay: Physiological characterization of F1 hybrid plants under Imazamox; format: in vivo, Sesamum indicum; conditions: Imazamox 48 g a.i. h^−1
Method: as §2

Amaranthus palmeri [13] = assay: Imazamox post-emergence field experiment, weed control; format: in vivo; conditions: Imazamox 40 g a.i. h^−1, non-treated ~12 plants m^−1
Method: The experiment was conducted in the Experimental Farm of the Hebrew University of Jerusalem in Rehovot, Israel ([…]; 54 m above sea level). The soil at this location is brown-red, degrading, sandy soil (Rhodoxeralf), composed of 76% sand, 8% silt, and 16% clay. […] Each plot consisted of a 5-meter row, with a sowing density of 7-plants m^−1 (n=6). At the end of the season, the survival rate was analyzed (number of plants per plot) and the plants in the plot were harvested. Samples were threshed using a laboratory thresher (Wintersteiger AG LD 350, Austria) and after sifting, the seeds were weighed to obtain seed yield.
To test the efficiency of Imazamox for weed control, Amaranthus palmeri was used as a model. Seeds of A. palmeri were sown (20-seeds m-1) as competitor weeds alongside the two sesame lines described above. As a negative control, plots that were not treated were used. At the end of the experiment, the number of A. palmeri plants per plot was counted.

## Cc1cnc(C2=NC(C)(C(C)C)C(=O)N2)c(C(=O)O)c1 (stereo not shown) [Imazapic, 5-methyl-2-(4-methyl-5-oxo-4-propan-2-yl-1H-imidazol-2-yl) pyridine-3-carboxylic acid]
WT plants [1]
  state of WT plants in the field: dead already 10 DAT
[2]; at 6 g a.i. h^−1, P=0.0055
  reduction in growth of WT: 18%
[2]
  ED50 WT: 236 g a.i. ha^−1
SiRM plants [3]
  root volume, SiRM: didn't show any significant differences in root volume
SiRM plants [4]
  state of SiRM plants in the field: only slightly affected and showed a five-day delay in shoot development and flowering time
WT plants [5]; 144 g a.i. h^−1
  development of WT plants: fully controlled and did not develop beyond the growth of the cotyledons
WT plants [5]; 144 g a.i. h^−1, 14 days after sowing, control 2.23, P=0.0008
  canopy coverage, WT: 0.27 % of coverage
WT plants [5]; 144 g a.i. h^−1, control 82
  root length, WT: 5 mm
Amaranthus palmeri [6]
  control of A. Palmeri: didn't emerge (full-control)
Abutilon Theophrastus
  control of Abutilon: didn't develop beyond the cotyledons
[7]
  height to the first capsule: reduced height to the first capsule
[7]; compared with weed-free control
  effect on growth of the resistant plants: no deleterious effects
[8]; 16X
  rate at which SiRM exhibited severe damage symptoms: 768 g a.i. h^−1
[8]
  ED50 SiRM: 563 g a.i. ha^−1
  dose up to which SiRM plants were not affected: ≤ 96 g a.i. h^−1
  RI (resistance index): 2.4
SiRM plants [9]; 48, 96 and 144 g a.i. h^−1, clay soil
  survival rate, SiRM: 100%
SiRM plants [9]; 144 g a.i. h^−1
  development of SiRM plants: developed normally without any visual differences compared to the untreated control
SiRM plants [9]; 144 g a.i. h^−1, 14 days after sowing
  canopy coverage, SiRM: maintained similar values
SiRM plants [9]; 144 g a.i. h^−1, control 72, P=0.106
  root length, SiRM: 85 mm

## CCc1cnc(C2=NC(C)(C(C)C)C(=O)N2)c(C(=O)O)c1 (stereo not shown) [Imazethapyr, 5-ethyl-2-(4-methyl-5-oxo-4-propan-2-yl-1H-imidazol-2-yl) pyridine-3-carboxylic acid]
[2]; 20 g a.i. h^−1
  effect on WT plants at field recommended dosage: deadly for the plants
[2]
  ED50 WT: 3.7 g a.i. ha^−1
[8]; 160 g a.i. h^−1
  state of SiRM plants at the highest dosage: viable and fully recovered
[8]
  ED50 SiRM: 161 g a.i. ha^−1
  dose up to which SiRM plants were not affected: ≤ 80 g a.i. h^−1
  RI (resistance index): 48

## COc1ncc(F)c2nc(S(=O)(=O)Nc3c(F)cccc3F)nn12 [Florasulam, N-(2,6-difluorophenyl)-8-fluoro-5-methoxy-[1,2,4]triazolo[1,5-c]pyrimidine-2-sulfonamide]
[2]
  ED50 WT: 31 g a.i. ha^−1
[8]
  ED50 SiRM: 62 g a.i. ha^−1
  RI (resistance index): 2

## COc1cc(OC)nc(NC(=O)NS(=O)(=O)c2ncccc2OCC(F)(F)F)n1 [Trifloxysulfuron, 1-(4,6-dimethoxypyrimidin-2-yl)-3-[3-(2,2,2-trifluoroethoxy)pyridin-2-yl]sulfonylurea]
[2]
  ED50 WT: 33 g a.i. ha^−1
  reduction in shoot DW, WT: 63%
  reduction in shoot length, WT: 74%
[8]
  ED50 SiRM: 69 g a.i. ha^−1
  RI (resistance index): 2
  reduction in shoot DW, SiRM: 18%
  reduction in shoot length, SiRM: 7%

## COCc1cnc(C2=NC(C)(C(C)C)C(=O)N2)c(C(=O)O)c1 (stereo not shown) [Imazamox, 5-(methoxymethyl)-2-(4-methyl-5-oxo-4-propan-2-yl-1H-imidazol-2-yl) pyridine-3-carboxylic acid]
[2]
  ED50 WT: 18 g a.i. ha^−1
[2]; post-emergence dose-response
  dose at which WT plants already exhibited visual symptoms and reduced shoot DW: 6 g a.i. ha^−1
SiRM plants [10]; Imazamox 40 g a.i. h^−1, control 16.7, P=0.02
  seed yield per plot, SiRM: 31.5 g
SiRM plants [10]; Imazamox 40 g a.i. h^−1, field
  effect on the SiRM plots stand: no significant effect
SiRM plants [10]; Imazamox 40 g a.i. h^−1, weed-free control 2.88, P=0.011
  seed yield per plant, SiRM: 6.05 g per plant
SiRM plants [10]; field conditions, post-emergence
  yield of SiRM compared to the corresponding weed-free UTC: two-fold greater yield
WT plants (S-416)
  visual symptoms, WT: reduced growth and meristem damages
SiRM plants [11]; 21 DAT
  state of SiRM plants at the end of the experiment: showed no effect of Imazamox treatment
SiRM plants [11]; after 48 h
  recovery of assimilation, SiRM: recover completely and did not differ from the UTC plants
WT (S-416) plants; 21 DAT
  state of WT plants at the end of the experiment: fully eradicated
WT (S-416) plants; after 48 h
  assimilation rate of WT: < 20%
Mutant plants (SiRM)
  visual symptoms, SiRM: did not display any visual symptoms
WT (S-416) sesame; field, P<0.0001
  reduction in WT sesame stand: 75%
WT (S-416) sesame; weed-free control 3.6, P=0.0015
  seed yield per plant, WT: 0.93 g per plant
WT (S-416) sesame; weed-free control 19, P=0.0002
  seed yield per plot, WT: 1.6 g
[12]
  recovery of assimilation, hybrid plants: after six days they fully recovered
[12]; 21 DAT
  reduction in plant height, hybrid plants: ~40%
  reduction in shoot DW, hybrid plants: ~35%
[12]; UTC 5.6
  nodes to the first flower, hybrid plants treated: 11.4 nodes
[12]; UTC 8.0
  nodes length, hybrid plants treated: 2.4 cm
[12]; UTC 44.6
  height of first flower bud, hybrid plants treated: 27.6 cm
[8]; SiRM, low doses of 3, 6 and 12 g a.i. h^−1
  increment in shoot DW compared with untreated control plants: 50%
[8]
  ED50 SiRM: 823 g a.i. ha^−1
  RI (resistance index): 45
Amaranthus palmeri [13]
  number of A. palmeri plants: ~0 A. palmeri plants per meter plot

## COc1cc(OC)nc(NC(=O)NS(=O)(=O)c2cc(NC=O)ccc2C(=O)N(C)C)n1 [Foramsulfuron, 2-[(4,6-dimethoxypyrimidin-2-yl)carbamoylsulfamoyl]-4-formamido-N,N-dimethylbenzamide]
[2]
  ED50 WT: 41 g a.i. ha^−1
  reduction in shoot DW, WT: 25%
  reduction in shoot length, WT: 64%
[8]
  ED50 SiRM: 165 g a.i. ha^−1
  RI (resistance index): 3.95
  reduction in shoot DW, SiRM: 8%
  reduction in shoot length, SiRM: 58%

## CCCOc1nn(C(=O)NS(=O)(=O)c2ccccc2C(=O)OC)c(=O)n1C [Propoxycarbazone, methyl 2-[(4-methyl-5-oxo-3-propoxy-1,2,4-triazole-1-carbonyl)sulfamoyl]benzoate]
[2]
  ED50 WT: 12 g a.i. ha^−1
  response of WT plants in dose-response assay: severe response of the WT plants already at a low dose of ⅛X
[8]
  ED50 SiRM: 96 g a.i. ha^−1
  response of SiRM plants in dose-response assay: able to maintain growth (and develop flowering buds) up to the recommended dose
  RI (resistance index): 8

## COc1cc(OC)nc(Sc2cccc(Cl)c2C(=O)O)n1 [Pyrithiobac sodium, sodium;2-chloro-6-(4,6-dimethoxypyrimidin-2-yl)sulfanylbenzoate]
[2]
  ED50 WT: 9.8 g a.i. ha^−1
  response of WT plants in dose-response assay: lethal for both lines
[8]
  ED50 SiRM: 202 g a.i. ha^−1
  response of SiRM plants in dose-response assay: able to survive up to the recommended dose
  RI (resistance index): 20.5
  reduction in shoot length, SiRM: 66%
